Measurements from US20240358020A1, “FORMAMIDE DERIVATIVE AND AGRICULTURAL OR HORTICULTURAL PLANT DISEASE CONTROL AGENT” (Kumiai Chemical Industry Co., Ltd., priority 2021, published 2024).

Columns and labels:
Assay type in all cases: in vivo
[1] = system: Wheat rust (Puccinia recondita); test: Wheat rust control effect test; details: chemical solution 50 ppm active ingredient sprayed on wheat seedlings, then spray-inoculated; first leaf examined after 9 days
Description: (§1) [in the formula, N represents the total number of examined leaves, n0 represents the number of leaves having a disease severity index of 0, n1 represents the number of leaves having a disease severity index of 1, n2 represents the number of leaves having a disease severity index of 2, n3 represents the number of leaves having a disease severity index of 3, and n4 represents the number of leaves having a disease severity index of 4.]
[Test Example 2] Wheat rust (Puccinia recondita) control effect test Wheat seeds were sown in a pot, and a chemical solution was sprayed on the grown seedlings so that the concentration of the active ingredient was 50 ppm. Thereafter, a wheat rust fungus was spray-inoculated, the pot was transferred to a wet room and was kept under dark conditions, and invasion of pathogens was promoted. Thereafter, the pot was managed in a greenhouse, after 9 days, a degree of disease severity for each first leaf was examined according to the criteria in Table 220 to determine a degree of disease severity by a calculation formula of Equation 1, and a control value was determined by a calculation formula of Equation Formula 2.

[2] = system: Soybean Rust (Phakopsora pachyrhizi); test: Soybean rust control effect test; details: sprayed on soybean seedlings at 100 g a.i./ha, then spray-inoculated; disease severity of first leaf examined after 12 to 14 days
Description: [Test Example 1] Soybean Rust (Phakopsora pachyrhizi) Control Effect Test
Soybean seeds were sown in a pot and sprayed on the grown seedlings so that the amount of the active ingredient was 100 g a.i./ha. Thereafter, a soybean rust fungus was spray-inoculated, the pot was transferred to a wet room and was kept under dark conditions, and invasion of pathogens was promoted. Thereafter, the pot was managed in a greenhouse, after 12 to 14 days, a degree of disease severity for each first leaf was examined according to the criteria in Table 226 to determine a degree of disease severity by a calculation formula of Equation 1, and a control value was determined by a calculation formula of Equation 2.
as §1

[3] = system: Rice Sheath Blight Disease (Rhizoctonia solani); test: Rice sheath blight disease control effect test; details: chemical solution 50 ppm active ingredient sprayed on rice seedlings, then inoculated with bran medium culture; lesion height examined after 5 days
Description: as §1
[Test Example 3] Rice Sheath Blight Disease (Rhizoctonia solani) Control Effect Test
Rice seeds were sown in a pot, and a chemical solution was sprayed on the grown seedlings so that the concentration of the active ingredient was 50 ppm. Thereafter, a bran medium in which a rice sheath blight fungi was cultured was inoculated into the strain, the bran medium was transferred to a wet room, and invasion of pathogens was promoted. Thereafter, the pot was managed in a greenhouse, after 5 days, a lesion height was examined according to the criteria in Table 221 to determine a degree of disease severity by a calculation formula of Equation 1, and a control value was determined by a calculation formula of Equation 2.

## CCC(=O)N(Cc1ccccc1)c1ccc(-c2noc(C(F)(F)F)n2)cc1 [comparative compound]
[1]
  control value: ≤ 12.5
[2]
  control value: less than 60
[3]
  control value: ≤ 12.5
